One assay concerns T1, OfABCB2.
T1 construct: full-length cds (3984 bp, 1327 aa), baculovirus pFBD in Sf9 cells, isolated cell membranes; no tag mentioned
The experiment in a line: vanadate-sensitive ATPase assay, phosphate release, Sf9 membranes. The class given is biochemical, Oncopeltus fasciatus. The following applies: substrate-stimulated ATPase; difference without / with 500 µM vanadate; 0-800 µM in 2% DMSO; 37 °C; read-out: Km Values [μM] ± SE / OfABCB2. The source says: vanadate-sensitive ATPase assay, phosphate release, Sf9 membranes on OfABCB2

The subject of a further assay is OfABCB1. The conditions noted are these: read-out: Km Values [μM] ± SE / OfABCB1; substrate-stimulated ATPase; difference without / with 500 µM vanadate; 0-800 µM in 2% DMSO; 37 °C. The source says: vanadate-sensitive ATPase assay, phosphate release, Sf9 membranes on OfABCB1

For the molecule `C[C@H]1O[C@@H](O[C@H]2[C@@H](O)C[C@H](O[C@H]3[C@@H](O)C[C@H](O[C@H]4CC[C@@]5(C)[C@H](CC[C@@H]6[C@@H]5C[C@@H](O)[C@]5(C)[C@@H](C7=CC(=O)OC7)CC[C@]65O)C4)O[C@@H]3C)O[C@@H]2C)C[C@H](O)[C@@H]1O` [digoxin], the Km in the assay on OfABCB2 was 9.33 ± 2.43 µM; in the assay with OfABCB1, 33.7 ± 11.4 µM.
For the molecule `C[C@@H]1O[C@@H](O[C@H]2C[C@@H](O)[C@]3(CO)[C@H]4[C@H](O)C[C@]5(C)[C@@H](C6=CC(=O)OC6)CC[C@]5(O)[C@@H]4CC[C@]3(O)C2)[C@H](O)[C@H](O)[C@H]1O` [ouabain], in the assay on OfABCB2, the Km was 7.05 ± 2.61 µM.
